Data: patent US12152035B2, “Androgen receptor binding molecule and use thereof” (Industrial Technology Research Institute, priority 2020, dated 2024)

Key:
Type in all cases: cell-based
VCaP cells = test: Cytotoxicity assay (AlamarBlue, 72 hours); conditions: 72 hours treatment, concentration not given
Method: (§1) Compound stock solutions of 10 mM were prepared with 100% DMSO and shaken for 10-15 seconds. The compound stock solutions were centrifuged at 12000 rpm (13523 rcf.) for 5 minutes and record the turbidity or precipitation state with a photo snapshot. The compound stock solutions were resuspended by shaking for 10-15 seconds, and serially diluted with 100% DMSO solution to make the compound concentration to 1000 μM, then to 100, 10, and 1 μM, and then 10-fold diluted with medium to 100, 10, 1, 0.1 μM (final 10% DMSO/medium) to complete compound test sample preparation. Compound treatment was performed by adding 10 μL of compound test sample to cells in each well of a 96-well plate (final 1% DMSO/medium).
(§2) Cells (CWR22Rv1 cells or VCaP cells) were cultured in RPMI-1640 medium supplemented with 10% fetal bovine serum, 10,000 U/mL penicillin and 10,000 μg/mL streptomycin. Cells were cultured at 37° C. in a humidified 5% CO2 incubator.
(§3) Cells were seeded in a 96-well plate (1×10^4 cells/well). 10 μL of the above compound test sample was added to each well of the 96-well plate on next day. After 72 hours of compound treatment, 10 μL of AlamaBlue reagent was added to each of 96 wells and incubated for 4 hours. The fluorescence value at Ex/Em=560/590 nm was read with a microplate reader, and the cytotoxicity (%) was calculated.
(§4) According to the above method, the compounds prepared above were subjected to cytotoxicity test with CWR22RV1 cells and VCaP cells.

CWR22RV1 cells = test: Cytotoxicity assay (AlamarBlue, 72 hours); conditions: 72 hours treatment, concentration not given
Method: as §1, §2, §3, §4

[1] = test system: full-length androgen receptor; test: Western blot: degradation of full-length androgen receptor in CWR22RV1 cells; conditions: overnight
Method: CWR22Rv1 cells were maintained in RPMI medium supplemented with 10% fetal bovine serum and 1% penicillin-streptomycin at 37° C. in a humidified environment with 5% CO2.
CWR22Rv1 (5×10^5 cells) were seeded in each well of a 6-well plate and incubated overnight. Before compound treatment, the medium in the wells was replaced with a new medium. Cells were treated with different concentrations of compound overnight. Subsequently, cells were harvested by adding cold PBS and scraping cells. Cells were lysed according to general procedures and Western blot assays were performed to assess the ability of compounds to degrade full-length androgen receptor or androgen receptor splice variant 7. The cells or cell lysates were kept on ice at all times.
The following reagents were used in this experiment. Phosphate buffered saline (PBS) (Hyclone, SH30028.02), fetal bovine serum (Hyclone, SH30084.23, Lot AC14563276), penicillin-streptomycin solution (Hyclone, SV30010), 0.5% Trypsin-EDTA (Gibco, 15400-054), CST Lysis Buffer (CST-9803), Halt™ Protease and Phosphatase Inhibitor (ThermoFisher, 78442), Coomassie (Bradford) Protein Assay (Coomassie (Bradford) protein assay) (ThermoFisher, 23200), androgen receptor antibody (Cell Siginaling, CST-5153S), GAPDH antibody (Cell Siginaling, CST-5174S), HRP-goat-anti-rabbit (Jackson Immuno Research, 111-035-003), skim milk, SuperSignal West Pico Maximum Sensitivity substrate (ThermoFisher, 34080).
The compound prepared above was analyzed for its ability to degrade full-length androgen receptor and androgen receptor splice variant 7 in CWR22RV1 cells by Western blotting according to the method shown in item B.3-2 above.

[2] = compound concentration 0.1 (unit not given)
[3] = compound concentration 1 (unit not given)
[4] = compound concentration 10 (unit not given)

Row | Compound | Cytotoxicity, VCaP cells (cell viability %) (VCaP cells) | Cytotoxicity, CWR22RV1 cells (cell viability %) (CWR22RV1 cells) | Degradation ability for full-length androgen receptor (residual rate %) [1, 2] | Degradation ability for full-length androgen receptor (residual rate %) [1, 3] | Degradation ability for full-length androgen receptor (residual rate %) [1, 4]
1 | Cc1ncsc1-c1ccc(CNC(=O)[C@@H]2C[C@H](O)CN2C(=O)[C@@H](NC(=O)C2CCC(C(=O)N3CCC(C#Cc4ccc(C5CCN(C6=Nn7c(nnc7C(F)(F)F)CC6)CC5)cc4)CC3)CC2)C(C)(C)C)cc1 (stereo in doubt) [Compound 34, 1-(3,3-dimethyl-2-(4-(4-((4-(1-(3-(trifluoromethyl)-7,8-dihydro-[1,2,4]triazolo[4,3-b]pyridazin-6-yl)piperidin-4-yl)phenyl)ethynyl)piperidine-1-carbonyl)cyclohexane-1-carboxamido)butanoyl)-4-hydroxy-N-(4-(4-methylthiazol-5-yl)benzyl)pyrrolidine-2-carboxamide] | +++ (<40% : +++) | + (60-80% : +) |  |  | 
2 | Cc1ncsc1-c1ccc(CNC(=O)[C@@H]2C[C@H](O)CN2C(=O)[C@@H](NC(=O)CCC#Cc2ccc(COc3ccc(C4CCN(C5=Nn6c(nnc6C(F)(F)F)CC5)CC4)cc3)cc2)C(C)(C)C)cc1 [Compound 2, (2S,4S)-1-((S)-3,3-dimethyl-2-(5-(4-((4-(1-(3-(trifluoromethyl)-7,8-dihydro-[1,2,4]triazolo[4,3-b]pyridazin-6-yl)piperidin-4-yl)phenoxy)methyl)phenyl)pent-4-ynamido)butanoyl)-4-hydroxy-N-(4-(4-methylthiazol-5-yl)benzyl)pyrrolidine-2-carboxamide] |  | + (60-80% : +) |  |  | 
3 | Cc1ncsc1-c1ccc(CNC(=O)[C@@H]2C[C@H](O)CN2C(=O)[C@@H](NC(=O)COCCCOCCNC(=O)COc2ccc(C3CCN(C4=Nn5c(nnc5C(F)(F)F)CC4)CC3)cc2)C(C)(C)C)cc1 [Compound 3, (2S,4S)-1-((S)-2-tert-butyl-4,14-dioxo-15-(4-(1-(3-(trifluoromethyl)-7,8-dihydro-[1,2,4]triazolo[4,3-b]pyridazin-6-yl)piperidin-4-yl)phenoxy)-6,10-dioxa-3,13-diazapentadecane)-4-hydroxy-N-(4-(4-methylthiazol-5-yl)benzyl)pyrrolidine-2-carboxamide] |  | ++ (40-60% : ++) |  |  | 
4 | Cc1ncsc1-c1ccc(CNC(=O)[C@@H]2C[C@H](O)CN2C(=O)[C@@H](NC(=O)CCOCCOCCN2CCN(c3ccc(C#Cc4ccc(C5CCN(C6=Nn7c(nnc7C(F)(F)F)CC6)CC5)cc4)cn3)CC2)C(C)(C)C)cc1 [Compound 4, (2S,4S)-1-((S)-3,3-dimethyl-2-(3-(2-(2-(4-(5-((4-(1-(3-(trifluoromethyl)-7,8-dihydro-[1,2,4]triazolo[4,3-b]pyridazin-6-yl)piperidin-4-yl)phenyl)ethynyl)pyridin-2-yl)piperazin-1-yl)ethoxy)ethoxy)propanamido)butanoyl)-4-hydroxy-N-(4-(4-methylthiazol-5-yl)benzyl)pyrrolidine-2-carboxamide] |  | + (60-80% : +) |  |  | 
5 | Cc1cc([C@H](C(=O)N2C[C@H](O)C[C@H]2C(=O)N[C@@H](CC(=O)NCCOCCCCOc2ccc(C3CCN(C4=Nn5c(nnc5C(F)(F)F)CC4)CC3)cc2)c2ccc(-c3scnc3C)cc2)C(C)C)on1 [Compound 6, (2S,4R)-4-hydroxy-1-((R)-3-methyl-2-(3-methylisoxazol-5-yl)butanoyl)-N—((S)-1-(4-(4-methylthiazol-5-yl)phenyl)-3-oxo-3-(2-(4-(4-(1-(3-(trifluoromethyl)-7,8-dihydro-[1,2,4]triazolo[4,3-b]pyridazin-6-yl)piperidin-4-yl)phenoxy)butoxy)ethylamino)propyl)pyrrolidine-2-carboxamide] |  | − (<80% : −) |  |  | 
6 | Cc1ncsc1-c1ccc(CNC(=O)[C@@H]2C[C@H](O)CN2C(=O)C(NC(=O)CC2O[C@H](CNC(=O)COc3ccc(C4CCN(C5=Nn6c(nnc6C(F)(F)F)CC5)CC4)cc3)[C@@H](O)[C@H]2O)C(C)(C)C)cc1 (stereo partly drawn) [Compound 7, 1-(2-(2-((3R,4S,5R)-3,4-dihydroxy-5-((2-(4-(1-(3-(trifluoromethyl)-7,8-dihydro-[1,2,4]triazolo[4,3-b]pyridazin-6-yl)piperidin-4-yl)phenoxy)acetamido)methyl)tetrahydrofuran-2-yl)acetamido)-3,3-dimethylbutanoyl)-4-hydroxy-N-(4-(4-methylthiazol-5-yl)benzyl)pyrrolidine-2-carboxamide] |  | − (<80% : −) | − (>80%; −) | − (>80%; −) | − (>80%; −)
7 | Cc1ncsc1-c1ccc(CNC(=O)[C@@H]2C[C@H](O)CN2C(=O)[C@@H](NC(=O)COCCCCOc2ccc(C3CCN(C4=Nn5c(nnc5-c5ccc(C(F)(F)F)cc5)CC4)CC3)cc2)C(C)(C)C)cc1 [Compound 8, (2S,4S)-1-((S)-3,3-dimethyl-2-(2-(4-(4-(1-(3-(4-(trifluoromethyl)phenyl)-7,8-dihydro-[1,2,4]triazolo[4,3-b]pyridazin-6-yl)piperidin-4-yl)phenoxy)butoxy)acetamido)butanoyl)-4-hydroxy-N-(4-(4-methylthiazol-5-yl)benzyl)pyrrolidine-2-carboxamide] |  | +++ (<40% : +++) | − (>80%; −) | + (60-80%: +) | +++ (<40%: +++)
8 | Cc1ncsc1-c1ccc(CNC(=O)[C@@H]2C[C@H](O)CN2C(=O)[C@@H](NC(=O)CCCN2CCC(C#Cc3ccc(C4CCN(C5=Nn6c(nnc6C(F)(F)F)CC5)CC4)cc3)CC2)C(C)(C)C)cc1 [Compound 13, (2S,4S)-1-((S)-3,3-dimethyl-2-(4-(4-((4-(1-(3-(trifluoromethyl)-7,8-dihydro-[1,2,4]triazolo[4,3-b]pyridazin-6-yl)piperidin-4-yl)phenyl)ethynyl)piperidin-1-yl)butanamido)butanoyl)-4-hydroxy-N-(4-(4-methylthiazol-5-yl)benzyl)pyrrolidine-2-carboxamide] | +++ (<40% : +++) | +++ (<40% : +++) |  |  | 
9 | Cc1ncsc1-c1ccc(CNC(=O)[C@@H]2C[C@H](O)CN2C(=O)[C@@H](NC(=O)COCCCOc2ccc(C3CCN(C4=Nn5c(nnc5C(F)(F)F)CC4)CC3)cc2)C(C)(C)C)cc1 [Compound 20, (2S,4S)-1-((S)-3,3-dimethyl-2-(2-(3-(4-(1-(3-(trifluoromethyl)-7,8-dihydro-[1,2,4]triazolo[4,3-b]pyridazin-6-yl)piperidin-4-yl)phenoxy)propoxy)acetamido)butanoyl)-4-hydroxy-N-(4-(4-methylthiazol-5-yl)benzyl)pyrrolidine-2-carboxamide] | ++ (40-60% : ++) | +++ (<40% : +++) |  |  | 
10 | Cc1ncsc1-c1ccc(CNC(=O)C2CC(O)CN2C(=O)C(NC(=O)CC2O[C@H](COc3ccc(C4CCN(C5=Nn6c(nnc6C(F)(F)F)CC5)CC4)cc3)[C@@H](O)[C@H]2O)C(C)(C)C)cc1 (stereo partly drawn) [Compound 29, 1-(2-(2-((3R,4S,5R)-3,4-dihydroxy-5-((4-(1-(3-(trifluoromethyl)-7,8-dihydro-[1,2,4]triazolo[4,3-b]pyridazin-6-yl)piperidin-4-yl)phenoxy)methyl)tetrahydrofuran-2-yl)acetamido)-3,3-dimethylbutanoyl)-4-hydroxy-N-(4-(4-methylthiazol-5-yl)benzyl)pyrrolidine-2-carboxamide] |  | − (<80% : −) | + (60-80%: +) | − (>80%; −) | − (>80%; −)
